# Measurements reported in publication PMC11719397, “Monophthalates of betulinic acid and related pentacyclic triterpenes inhibit efficiently the SOS-mediated nucleotide exchange and impact PI3K/AKT signaling in oncogenic K-RAS4B proteins” (RSC Advances, 2025).
# Assays:
# [1] = tested on: ERK phosphorylation in A375 cells (K-RAS4B^wt); assay: HTRF ERK phosphorylation assay in A375 cells; type: cell-based; conditions: Homo sapiens, A-375; A375 cells (K-RAS4B^wt, BRAF mutation); two determinations; read-out: A375 pERK inhibition IC50
# Description: (§1) For selected betulinic acid derivatives quantitative ERK and AKT phosphorylation was measured in SNU-1 (K-RAS4B^G12D) and A375 cells (K-RAS4B^wt) to determine whether pentacyclic triterpenes act via the RAS-RAF-MEK-ERK or the RAS-PI3K-PDK1-AKT downstream cascade (Table 2). The betulinic acid derivatives tested, had no activity on the ERK pathway, but inhibited AKT phosphorylation with micromolar IC50 values in agreement with literature reports.[50,51] […] No activity was detected in A375 cells carrying a BRAF but no K-RAS mutation.
# (§2) SNU-1 cells harbouring the K-RASG12D mutation (primary carcinoma of the stomach), were grown in RPMI medium with 10% FBS (fetal bovine serum) and 1% L-Gln. Cells were plated in white small volume cell culture 384 well microplates (Greiner BioOne GmbH) at a density of 50.000 cells per well/6 μL in RPMI medium with 1% L-glut (serum-free medium). The plated cells were placed in a high humidity incubator (37 °C, 5% CO2 and 90% humidity) to avoid evaporation of the small amount of medium for 3 hours before the compounds were added. With the Echo520 liquid handler the cells were treated with a 3-fold 8-point serial dilution of the compounds, with a top final concentration of 330 μM and a final DMSO concentration of 1%. After compound transfer, cells were incubated for 1 hour in the high humidity incubator before the cells were treated with 3 μL of 9 nM EGF diluted in serum-free medium (final EGF concentration in the well 3 nM) for 15 minutes. The lysis buffer from the Phospho-ERK 1/2 (Thr202/Tyr204)- and the Total ERK1/2 LANCE Ultra TR-FRET Cellular Detection Kit (PerkinElmer Inc.) was prepared to a 4-fold concentration in water. Then 3 μL of the lysis buffer were added to each well and the plates were shaken at 300 rpm for 30 minutes at room temperature. During this incubation the antibody detection mix was prepared according to the manufacturer's protocol. In the final step 3 μL of antibody detection mix were added to each well. The plates were sealed with an aluminium sticky foil and incubated over night at room temperature for 20 hours. The detection was performed with the EnVision2104 Multilabel Reader.
# [2] = tested on: a series of cancer cell lines; parameters: method as in PMID 25909174; conditions: read-out: cytotoxic IC50 against a series of cancer cell lines; cited from earlier work
# K-RAS4B wild-type [3] = biological target: K-RAS4B wild-type (Homo sapiens, UniProt P01116); assay: Nucleotide exchange assay (SOS1-mediated GDP/GTP exchange, GDP-Glo), K-RAS4B wild-type; type: biochemical; conditions: K-RAS4B GDP/GTP exchange; eight data points, at least three determinations; (*) single determination
# Sequence of K-RAS4B wild-type (Homo sapiens, UniProt P01116) (P01116 1-188 isoform P01116-2): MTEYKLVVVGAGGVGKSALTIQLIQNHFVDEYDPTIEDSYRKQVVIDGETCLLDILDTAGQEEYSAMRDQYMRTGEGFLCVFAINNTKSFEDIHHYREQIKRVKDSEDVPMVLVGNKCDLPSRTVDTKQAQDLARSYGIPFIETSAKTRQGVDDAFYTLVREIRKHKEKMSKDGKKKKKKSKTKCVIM
# [4] = tested on: AKT phosphorylation in SNU-1 cells (K-RAS4B^G12D); assay: HTRF AKT phosphorylation assay in SNU-1 cells; type: cell-based; conditions: Homo sapiens, SNU1, read-out: SNU-1 pAKT inhibition IC50
# Description: as §1, §2
# K-RAS4B^G12D [5] = biological target: T1, K-RAS4B^G12D (Homo sapiens, UniProt P01116, G12D); assay: biochemical; conditions: K-RAS4B GDP/GTP exchange; eight data points, at least three determinations
# Target sequence in this assay (P01116 1-188 isoform P01116-2 G12D): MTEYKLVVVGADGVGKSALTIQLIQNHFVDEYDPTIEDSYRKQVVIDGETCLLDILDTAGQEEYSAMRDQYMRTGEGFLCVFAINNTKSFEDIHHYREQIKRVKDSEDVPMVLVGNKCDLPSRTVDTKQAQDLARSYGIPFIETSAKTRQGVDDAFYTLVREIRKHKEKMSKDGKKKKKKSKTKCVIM
# K-RAS4B G12V = K-RAS4B G12V (Homo sapiens, UniProt P01116, G12V); assay: Nucleotide exchange assay (SOS1-mediated GDP/GTP exchange, GDP-Glo), K-RAS4B G12V; type: biochemical; conditions: eight data points, at least three determinations, (*) single determination
# Sequence of K-RAS4B G12V (P01116 1-188 isoform P01116-2 G12V): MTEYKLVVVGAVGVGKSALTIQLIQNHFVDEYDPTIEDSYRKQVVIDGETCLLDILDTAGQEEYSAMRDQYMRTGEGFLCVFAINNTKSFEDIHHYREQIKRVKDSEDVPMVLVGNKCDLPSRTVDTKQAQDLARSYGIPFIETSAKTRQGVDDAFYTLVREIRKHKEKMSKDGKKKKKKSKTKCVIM
# [6] = tested on: AKT phosphorylation in A375 cells (K-RAS4B^wt); assay: HTRF AKT phosphorylation assay in A375 cells; type: cell-based; conditions: Homo sapiens, A-375; A375 cells (K-RAS4B^wt, BRAF mutation); two determinations; read-out: A375 pAKT inhibition IC50
# Description: as §1, §2
# [7] = tested on: ERK phosphorylation in SNU-1 cells (K-RAS4B^G12D); assay: HTRF ERK phosphorylation assay in SNU-1 cells; type: cell-based; conditions: Homo sapiens, SNU1, read-out: SNU-1 pERK inhibition IC50
# Description: as §1, §2
# K-RAS4B wild-type [8] = assay: Nucleotide exchange assay (SOS1-mediated GDP/GTP exchange, GDP-Glo), K-RAS4B wild-type; type: biochemical; conditions: GDP/GTP exchange IC50 of wild-type versus G12D/G12V mutants
# K-RAS4B^G12D [9] = biological target: T1, K-RAS4B^G12D; assay: Surface plasmon resonance (SPR), K-RAS4B^G12D; type: binding; conditions: K-RAS4B^G12D alone
# Target sequence in this assay (P01116 1-188 isoform P01116-2 G12D): as the sequence (P01116 1-188 isoform P01116-2 G12D) above
# SOS = biological target: T2, SOS (Homo sapiens, UniProt Q07889); assay: Surface plasmon resonance (SPR), SOS; type: binding; conditions: SOS alone
# T2 sequence (Q07889 1-1333): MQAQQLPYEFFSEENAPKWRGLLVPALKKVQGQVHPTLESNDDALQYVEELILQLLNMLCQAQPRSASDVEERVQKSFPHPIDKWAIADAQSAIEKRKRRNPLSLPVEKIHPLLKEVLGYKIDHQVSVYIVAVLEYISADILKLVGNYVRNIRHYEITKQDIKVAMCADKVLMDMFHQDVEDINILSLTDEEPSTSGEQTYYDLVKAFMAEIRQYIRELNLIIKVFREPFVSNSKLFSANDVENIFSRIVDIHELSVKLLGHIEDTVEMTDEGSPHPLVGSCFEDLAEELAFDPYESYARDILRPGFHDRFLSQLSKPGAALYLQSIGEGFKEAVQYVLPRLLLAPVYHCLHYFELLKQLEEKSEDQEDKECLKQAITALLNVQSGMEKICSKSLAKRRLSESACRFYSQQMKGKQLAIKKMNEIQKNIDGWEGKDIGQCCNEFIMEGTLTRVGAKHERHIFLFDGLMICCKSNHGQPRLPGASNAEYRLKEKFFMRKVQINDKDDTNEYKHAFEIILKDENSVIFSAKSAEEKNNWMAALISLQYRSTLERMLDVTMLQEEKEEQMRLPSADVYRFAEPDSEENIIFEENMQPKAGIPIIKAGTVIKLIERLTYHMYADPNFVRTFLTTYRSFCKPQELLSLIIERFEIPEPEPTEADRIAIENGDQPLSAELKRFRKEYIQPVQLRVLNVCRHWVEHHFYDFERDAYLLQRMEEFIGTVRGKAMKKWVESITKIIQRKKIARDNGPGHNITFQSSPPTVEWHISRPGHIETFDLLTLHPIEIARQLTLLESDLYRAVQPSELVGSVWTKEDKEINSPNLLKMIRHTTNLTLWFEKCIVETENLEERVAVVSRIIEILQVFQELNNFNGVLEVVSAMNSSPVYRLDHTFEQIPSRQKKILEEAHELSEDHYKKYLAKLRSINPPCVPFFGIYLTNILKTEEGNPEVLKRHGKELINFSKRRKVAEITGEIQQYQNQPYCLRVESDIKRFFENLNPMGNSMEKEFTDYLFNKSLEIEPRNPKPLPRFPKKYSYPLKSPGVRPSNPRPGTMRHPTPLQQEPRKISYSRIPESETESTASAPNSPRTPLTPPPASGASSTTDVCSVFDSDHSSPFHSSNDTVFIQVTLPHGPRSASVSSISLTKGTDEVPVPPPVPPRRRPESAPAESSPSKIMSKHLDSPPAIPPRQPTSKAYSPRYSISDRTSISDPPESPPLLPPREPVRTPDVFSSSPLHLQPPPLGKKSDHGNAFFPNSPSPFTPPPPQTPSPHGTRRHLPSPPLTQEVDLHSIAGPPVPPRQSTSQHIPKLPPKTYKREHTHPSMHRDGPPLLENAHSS
# [10] = biological target: (GTP)K-RAS4B^wt:SOS1 complex (Homo sapiens, UniProt P01116+Q07889); assay: HTRF K-RAS^wt:SOS protein-protein interaction assay
# Sequence of (GTP)K-RAS4B^wt:SOS1 complex (P01116 1-188 isoform P01116-2, one chain of several): as the sequence (P01116 1-188 isoform P01116-2) above
# Description: The interaction of (GTP)K-RAS4B^wt and SOS was measured with a HTRF assay using an SOS-specific antibody labeled with terbium cryptate as HTRF (homogeneous time-resolved fluorescence) donor and a K-RAS4B^wt specific antibody labeled with an HTRF acceptor (XL665).[52]
# To test the compounds effect on the interaction of K-RAS and SOS1 proteins a commercial assay from Revvity (product code 64[sequence]) was used. The K-RAS WT/SOS1 PPI assay includes tagged human recombinant partners (K-RAS WT and SOS1) and labelled anti-tag reagents for HTRF detection. Without an inhibitor, K-RAS WT loaded with GTP binds to SOS1, and the binding of each detection reagent to its tagged target generates an HTRF signal. In the presence of K-RAS WT/SOS1 inhibitors or GTP competitors, the HTRF signal decreases.
# After an incubation step for 10 min at room temperature 3 μL Tag1-KRAS protein was added followed by 7.5 μL detection mix containing anti-Tag2 antibody labeled with Terbium cryptate and anti-Tag1 antibody labeled with XL665. […] IC50 values were determined from the sigmoidal dose response curves with the Scigilian Analyze software (Scigilian, Monteral, Canada).
# K-RAS4B^wt = biological target: T3, K-RAS4B^wt (Homo sapiens, UniProt P01116); assay: NanoBRET target engagement assay, K-RAS4B^wt (displacement of BI2852 tracer from SI/SII site); type: cell-based; conditions: live cells; displacement of BI2852 from the K-Ras4B SI/II binding-site; read-out: K-RAS4B^wt NanoBRET TE KD
# T3 construct: a fusion protein of LgBiT and full-length RAS; a fusion protein of SmBiT(q) and full-length RAS in cells; expressed in transfected cells; host or cells: HEK239T (so in the source)
# T3 sequence (P01116 1-188 isoform P01116-2): as above
# T3 sequence (P01116 1-188 isoform P01116-2): as above
# From the text: (§3) To obtain further information on the mode of action, selected GDP/GTP exchange inhibitors were studied in additional assays (Table 3). A target engagement assay, which is based on bioluminescence resonance energy transfer (BRET), was used to measure target engagement at protein complexes in live cells (Fig. 5a). The BRET effect results from an energy transfer between the target luciferase fusion protein and a cell-permeable fluorescent tracer in intact cells.
# (§4) Fig. 5 Schematic illustrations of the RAS cellular target engagement and RAS:SOS protein–protein interaction assay. (a) NanoBRET target engagement (TE) assay: when the fusion proteins LgBiT-RAS and SmBiT(q)-RAS interact in live-cells, they form an active luciferase as a BRET donor. The BRET receptor is a fluorescent NanoBRET® tracer that binds specifically to K-RAS. K-RAS binders displace the tracer and reduce the BRET signal in a dose-dependent manner.
# (§5) The NanoBRET® TE Intracellular RAS Assay uses NanoBiT® Technology, a structural complementation system comprised of a large luciferase subunit (LgBiT) and a small complementary peptide (SmBiT(q)). Specifically, a fusion protein of LgBiT and full-length RAS is co-expressed with a fusion protein of SmBiT(q) and full-length RAS in cells. When the RAS proteins interact and form multimers, the LgBiT and SmBiT(q) subunits come together to form an active luciferase enzyme that serves as the BRET donor. The energy acceptor is a cell-permeable fluorescent NanoBRET® tracer that binds specifically to RAS. […] After mixing the plate for 1 min and incubation at room temperature for 15 min 1 μL of NanoBRET TE RAS Tracer 01 (final concentration 1 μM) was added followed by another mixing step. After 2 h incubation (37 °C, 5% CO2) and 15 min at room temperature 5 μL of NanoBRET™ Nano-Glo® substrate was added followed by a mixing step.
# K-RAS4B^G12D [11] = biological target: T1, K-RAS4B^G12D; assay: cell-based; parameters: a fusion protein of LgBiT and full-length RAS; a fusion protein of SmBiT(q) and full-length RAS in cells; expressed in transfected cells; host or cells: HEK239T (so in the source); conditions: live cells; displacement of BI2852 from the K-Ras4B SI/II binding-site; read-out: K-RAS4B^G12D NanoBRET TE KD
# From the text: as §3, §4, §5
# Target sequence in this assay (P01116 1-188 isoform P01116-2 G12D): as the sequence (P01116 1-188 isoform P01116-2 G12D) above
# Target sequence in this assay (P01116 1-188 isoform P01116-2 G12D): as above
structure (smiles),measurement,setting,value
C=C(C)[C@@H]1CC[C@]2(C(=O)O)CC[C@]3(C)[C@H](CC[C@@H]4[C@@]5(C)CC[C@H](OC(=O)c6ccccc6C(=O)O)C(C)(C)[C@@H]5CC[C@]43C)[C@@H]12 [Compound 19],IC50,[1],> 1000 µM
same,IC50,[2],≤ 10 µM
same,IC50,K-RAS4B wild-type [3],15.3 ± 3.8 µM
same,IC50,[4],19 µM
same,IC50,K-RAS4B^G12D [5],10.4 ± 4.7 µM
same,solubility,Solubility,191 µM
same,IC50,K-RAS4B G12V,16.6 ± 5.2 µM
same,IC50,[6],> 1000 µM
same,IC50,[7],> 300 µM
"C=C(C)[C@@H]1CC[C@]2(C(=O)O)CC[C@]3(C)[C@H](CC[C@@H]4[C@@]5(C)CC[C@H](OC(=O)CC(C)(C)C(=O)O)C(C)(C)[C@@H]5CC[C@]43C)[C@@H]12 [Compound 28, bevirimat, reference compound]","selectivity factor, mutant versus K-RAS4B^wt",K-RAS4B wild-type [8],3–4
same,IC50,K-RAS4B wild-type [3],2.15 ± 0.17 µM
same,IC50,K-RAS4B^G12D [5],0.59 ± 0.19 µM
same,Kd,K-RAS4B^G12D [9],> 300 µM
same,IC50,K-RAS4B G12V,0.61 ± 0.14 µM
same,Kd,SOS,> 1000 µM
COc1cc(C(=O)O)c(C(=O)OC2CCC3(C)C(CCC4(C)C3CC=C3C5CC(C)(C)CCC5(C(=O)O)CCC34C)C2(C)C)cc1OC (stereo not shown) [Compound 47],IC50,K-RAS4B wild-type [3],2.71 ± 1.3 µM
same,Kd,[10],> 50 µM
same,Kd,K-RAS4B^wt,39 µM
same,IC50,K-RAS4B^G12D [5],1.61 ± 0.85 µM
same,solubility,Solubility,302 µM
same,IC50,K-RAS4B G12V,2.9 ± 0.51 µM
same,Kd,K-RAS4B^G12D [11],> 50 µM
